Reference: US20070032418A1, “Small-molecule inhibitors of angiogenin and rnases and in vivo and in vitro methods of using same” (Ambion, Inc, priority 2003, published 2007)
Like-named read-outs stand apart in the source and are kept apart here. Each block holds one molecule with its values, some of them ahead of it.

Tests used:
[1] = target: MMLV RT RNase H (Moloney murine leukemia virus, UniProt P03355); experiment: Inhibition of RT-based RNase H cleavage of RNA:DNA hybrid; assay type: biochemical; details: for % Cleavage: no inhibitor: 36%, 5 min at 37 C
Procedure: As described above, Chembridge compound #467929 offered protection from several RNA-specific endonucleolytic activities. […] A 20-mer DNA oligonucleotide was asymmetrically annealed to a 1500 base synthetic RNA to create an RNA:DNA duplex substrate for RNase H. Reactions were initiated with 10 U of MMLV RT in 1×RT buffer (50 mM TrisCl pH 8.3, 75 mM KCl, 3 mM MgCl2, 5 mM DTT) containing 500 ng/ul RNA:DNA hybrid. All reactions contained 5% DMSO either with or without the small molecule RNase inhibitor. Samples were incubated for 5 min at 37 C, and quenched with EDTA. Products were resolved on an RNA LabChip. Cleavage products were observed as two equally represented RNA species of 1000 and 500 bases. Product length and yield were determined using the 2100 BioAnalyzer software (Agilent). Table 4 details the level of inhibition of MMLV RT RNase H that is observed as a function of the concentration of compounds 467929 and 227726.

[2] = target: angiogenin (ANG) (Homo sapiens, UniProt P03950); experiment: Inhibition of ANG ribonucleolytic activity, HPLC assay of oligonucleotide cleavage; assay type: biochemical
Sequence of angiogenin (ANG) (P03950 25-147): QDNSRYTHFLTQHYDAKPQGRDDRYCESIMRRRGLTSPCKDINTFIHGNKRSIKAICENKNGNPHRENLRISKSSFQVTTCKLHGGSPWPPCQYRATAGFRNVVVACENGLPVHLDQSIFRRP
Procedure: Reaction mixtures with and without test compounds were chromatographed on a Mono Q anion-exchange column with an NaCl gradient in 10 mM Tris, pH 8. […] This information was used to calculate kcat/Km values, which were then fitted to the equation (kcat/Km)i=(kcat/Km)0/[…], where (kcat/Km)i and (kcat/Km)0 are defined as the values in the presence and absence of inhibitor, respectively, and [I] is defined as the inhibitor concentration. At least four concentrations (in a range of about 10 μM-above 100 μM) were used in the final hit confirmation in order to distinguish all true hits.
Chemical structures of selected compounds are shown in these Tables and in FIGS. 4 and 5.

[3] = test system: PC-3 human prostate tumor cells; experiment: PC-3 tumor formation in athymic mice; assay type: in vivo; details: PC-3 s.c.
Procedure: Compound NCI-65828 was identified by HTS as an ANG inhibitor. […] Each compound was administered 6 times per week, in doses of 40 μg, 8 μg, and 1.6 μg (about 2, 0.4 and 0.08 mg/kg/day). The compound was dissolved in DMSO, and control mice received a corresponding volume of DMSO (4%, 0.8% and 0%). Another control group received saline.
Another in vivo mouse experiment was performed using 8 or 12 mice per group. The experimental group was administered PC-3 cells and NCI-65828, as intraperitoneal injections (40 μg and 8 μg). A control group of mice was administered PC-3 cells and a related compound that was known to be ineffective at inhibiting ANG enzymatic activity. Mice were evaluated for number of animals that remained tumor free as a function of time, at intervals of 3 days from days 14-42 following the initial injection.
Concentrated stocks of inhibitors were prepared in dimethylsulfoxide (DMSO), and the inhibitors were diluted into phosphate-buffered saline (PBS); the final DMSO concentration for the 40 μg and 20 μg doses was 4% in PBS, and that for the 8 μg and 4 μg doses was 0.8% in PBS. Statistical significance (P values) was determined from Mantel-Cox tests performed on Kaplan-Meier survivor functions. Results for inhibitor-treated groups were compared to results obtained with the appropriate DMSO control groups. A positive control group of mice, administered antisense DNA specific for the ANG gene in PBS (no DMSO), was also included. ANG antisense DNA was shown previously to be extremely effective in this tumor model.
Tumor cells from a human prostate cancer (PC-3) were injected subcutaneously (s.c.) in the shoulder of 6-7 week old athymic (nude) mice on day 0. Treatment with the indicated amount of inhibitor (in 100 μL) was given subcutaneously in the same area as the cells, 6 times per week, with the first injection 5-10 minutes prior to injection of the cells. The total dosage was 0.4 mg to 2 mg per kg per day.

[4] = inhibition of ANG-catalyzed cleavage of an RNA oligonucleotide, 20 mM Hepes, 100 mM NaCl, 37° C., read-out: KI

Molecule: O=C(Nc1ccc(Cc2ccc(NC(=O)c3cccc([N+](=O)[O-])c3)c(C(=O)O)c2)cc1C(=O)O)c1cccc([N+](=O)[O-])c1 [CB-467929]
IC50 [1]: ~20 µM
% Cleavage ([1]; inhibitor 8 μM): 42%
% Cleavage ([1]; inhibitor 40 μM): 8%
Ki ([2]; 20 mM Hepes, 100 mM NaCl, pH 7.0, 37° C., read-out: Ki for inhibition of the ribonucleolytic activity of angiogenin): 24 µM

Ki ([2]; read-out: KI): 125 µM
Molecule: O=S(=O)(O)c1cc(O)c2c(/N=N/c3ccc(/N=N/c4c(S(=O)(=O)O)cc5cc(Nc6ccccc6)ccc5c4O)c4ccccc34)cc(S(=O)(=O)O)cc2c1 [NCI-75916]

Ki ([2]; read-out: KI): 129 µM
Molecule: Cc1nn(-c2cc(S(=O)(=O)O)ccc2Cl)c(O)c1/N=N/c1c(NC(=O)c2ccc(N)cc2)ccc2cc(S(=O)(=O)O)ccc12 [NCI-75963]

Ki ([2]; read-out: KI): 195 µM
Molecule: Nc1ccc2c(O)c(/N=N/c3ccc(-c4ccc(/N=N/c5c(S(=O)(=O)O)cc6cc(S(=O)(=O)O)c(/N=N/c7cc(Cl)ccc7Cl)c(N)c6c5O)cc4)cc3)c(S(=O)(=O)O)cc2c1 [NCI-77521]

Molecule: Nc1ccc(/N=N/c2ccc(-c3ccc(/N=N/c4c(S(=O)(=O)O)cc5cc(S(=O)(=O)O)c(/N=N/c6ccccc6)c(O)c5c4N)cc3)cc2)c2ccc(S(=O)(=O)O)cc12 [NCI-79596]
Ki ([2]; read-out: KI): 5 µM

Ki ([2]; read-out: KI): 23 µM
Molecule: Nc1c(/N=N/c2ccc(-c3ccc(/N=N/c4c(O)ccc5cc(S(=O)(=O)O)cc(S(=O)(=O)O)c45)cc3)cc2)c(S(=O)(=O)O)cc2cc(S(=O)(=O)O)c(/N=N/c3ccccc3)c(O)c12 [NCI-79741]

Ki ([2]; read-out: KI): 244 µM
Molecule: Nc1ccc2cc(S(=O)(=O)O)c(/N=N/c3ccc(-c4ccc(/N=N/c5c(S(=O)(=O)O)cc6cc(S(=O)(=O)O)c(/N=N/c7cccc([N+](=O)[O-])c7)c(N)c6c5O)cc4)cc3)c(O)c2c1 [NCI-79744]

KI ([2]; inhibition of ANG-catalyzed cleavage of an RNA oligonucleotide, 20 mM Hepes, 100 mM NaCl, 37° C.): in- active at 75 uM
Molecule: O=S(=O)(O)c1cc(O)c2c(/N=C/c3ccccc3O)cc(S(=O)(=O)O)cc2c1 [NCI-88947]

Ki ([2]; read-out: KI): 234 µM
Molecule: O=S(=O)(O)c1ccccc1/N=N/c1c(S(=O)(=O)O)cc2cc(S(=O)(=O)O)c(/N=N/c3ccccc3S(=O)(=O)O)c(O)c2c1O [NCI-174066]

Molecule: O=C(O)CC(NC(=O)CP(=O)(O)O)C(=O)O (stereo not shown) [NCI-224131]
Ki [2]: > 500 µM

Molecule: O=C(N/N=C(\c1ccccc1)c1ccncc1)c1ccccc1 [NCI-227726, N′-[phenyl(4-pyridinyl)methylene] benzohydrazide, reference compound]
% Cleavage ([1]; inhibitor 100 μM): 45%
% Cleavage ([1]; inhibitor 524 μM): 43%
% Cleavage ([1]; inhibitor 1000 μM): 47%

Ki ([2]; read-out: KI): 5 µM
Molecule: O=C(Nc1ccc(/C=C/c2ccc(NC(=O)c3cc(S(=O)(=O)O)c4ccncc4c3O)cc2S(=O)(=O)O)c(S(=O)(=O)O)c1)c1cc(S(=O)(=O)O)c2ccncc2c1O [NCI-665534-P]

Ki ([2]; read-out: KI): 81 µM
Molecule: Nc1ccc(/N=N/c2ccc(-c3ccc(S(=O)(=O)O)cc3)cc2)c2ccc(S(=O)(=O)O)cc12 [NCI-724225]

Ki ([2]; read-out: KI): 83 µM
Molecule: O=S(=O)(O)c1cc(S(=O)(=O)O)c2c(/N=N/c3ccccc3)c(O)ccc2c1 [Orange G]

Ki ([2]; read-out: KI): > 500 µM
Molecule: Nc1ccc2cc(S(=O)(=O)O)cc(O)c2c1N=Nc1ccccc1S(=O)(=O)c1ccccc1 [S321443]

Molecule: Nc1ccc(/N=N/c2ccc(-c3ccc(O)cc3)cc2)c2ccc(S(=O)(=O)O)cc12 [Tyger-65828]
Percentage of Tumor-Bearing Mice, day 14 ([3]; 4 μg s.c. 6 times per week): 8%
Percentage of Tumor-Bearing Mice, day 17 ([3]; 4 μg s.c. 6 times per week): 42%
Percentage of Tumor-Bearing Mice, day 21 ([3]; 4 μg s.c. 6 times per week): 67%
Percentage of Tumor-Bearing Mice, day 24 ([3]; 4 μg s.c. 6 times per week): 100%
Percentage of Tumor-Bearing Mice, day 32 ([3]; 4 μg s.c. 6 times per week): 100%
Percentage of Tumor-Bearing Mice, day 35 ([3]; 4 μg s.c. 6 times per week): 100%
Percentage of Tumor-Bearing Mice, day 14 ([3]; 8 μg s.c. 6 times per week): 0%
Percentage of Tumor-Bearing Mice, day 17 ([3]; 8 μg s.c. 6 times per week): 45%
Percentage of Tumor-Bearing Mice, day 21 ([3]; 8 μg s.c. 6 times per week): 55%
Percentage of Tumor-Bearing Mice, day 24 ([3]; 8 μg s.c. 6 times per week): 82%
Percentage of Tumor-Bearing Mice, day 32 ([3]; 8 μg s.c. 6 times per week): 91%
Percentage of Tumor-Bearing Mice, day 35 ([3]; 8 μg s.c. 6 times per week): 100%
Percentage of Tumor-Bearing Mice, day 14 ([3]; 20 μg s.c. 6 times per week): 0%
Percentage of Tumor-Bearing Mice, day 17 ([3]; 20 μg s.c. 6 times per week): 25%
Percentage of Tumor-Bearing Mice, day 21 ([3]; 20 μg s.c. 6 times per week): 33%
Percentage of Tumor-Bearing Mice, day 24 ([3]; 20 μg s.c. 6 times per week): 92%
Percentage of Tumor-Bearing Mice, day 32 ([3]; 20 μg s.c. 6 times per week): 100%
Percentage of Tumor-Bearing Mice, day 35 ([3]; 20 μg s.c. 6 times per week): 100%
Percentage of Tumor-Bearing Mice, day 14 ([3]; 40 μg s.c. 6 times per week): 8%
Percentage of Tumor-Bearing Mice, day 17 ([3]; 40 μg s.c. 6 times per week): 33%
Percentage of Tumor-Bearing Mice, day 21 ([3]; 40 μg s.c. 6 times per week): 33%
Percentage of Tumor-Bearing Mice, day 24 ([3]; 40 μg s.c. 6 times per week): 83%
Percentage of Tumor-Bearing Mice, day 32 ([3]; 40 μg s.c. 6 times per week): 92%
Percentage of Tumor-Bearing Mice, day 35 ([3]; 40 μg s.c. 6 times per week): 100%
Time of appearance of tumors (Example 3, Table 1) ([3]; treatment s.c. 6 times per week): delayed considerably the time of appearance of tumors
Ki for inhibition of the ribonucleolytic activity of angiogenin ([2]; 20 mM Hepes, 100 mM NaCl, pH 7.0, 37° C.): indistinguishable from that of the NCI compound

Ki ([2]; read-out: KI): 70 µM
Molecule: CC(=O)Nc1ccc(/N=N/c2c(N)ccc3cc(S(=O)(=O)O)cc(O)c23)c(S(=O)(=O)O)c1 [acid red 37]

Ki [2, 4]: 71 µM
Molecule: CC(=O)Nc1ccc(N=Nc2c(S(=O)(=O)O)cc3cc(S(=O)(=O)O)cc(NC(C)=O)c3c2O)cc1 [acid violet 7]

Ki ([2]; read-out: KI): 14 µM
Molecule: Nc1ccc2cc(S(=O)(=O)O)cc(O)c2c1/N=N/c1ccc(-c2ccc(/N=N/c3ccc(O)c(C(=O)O)c3)cc2)cc1 [direct red 1]

Ki ([2]; read-out: KI): 112 µM
Molecule: Nc1ccc2cc(S(=O)(=O)O)cc(O)c2c1N=Nc1ccc(-c2ccc(N=Nc3cc(S(=O)(=O)O)c4ccccc4c3N)cc2)cc1 [direct red 13]

Ki ([2]; read-out: KI): 69 µM
Molecule: O=S(=O)(O)c1cc(S(=O)(=O)O)c2c(/N=N/c3ccc(S(=O)(=O)O)c4ccccc34)c(O)ccc2c1 [new coccine]

Ki ([2]; read-out: KI): 20 µM
Molecule: Cc1cc(-c2ccc(/N=N/c3c(N)ccc4cc(S(=O)(=O)O)ccc34)c(C)c2)ccc1N [prBZBP]

Ki ([2]; read-out: KI): 85 µM
Molecule: O=S(=O)(O)c1ccc(/N=N/c2c(O)ccc3cc(S(=O)(=O)O)ccc23)cc1 [sunset yellow]

Ki ([2]; read-out: KI): 10 µM
Molecule: Cc1ccc(C(=O)Nc2ccc(S(=O)(=O)O)c3cc(S(=O)(=O)O)cc(S(=O)(=O)O)c23)cc1NC(=O)c1cccc(NC(=O)Nc2cccc(C(=O)Nc3cc(C(=O)Nc4ccc(S(=O)(=O)O)c5cc(S(=O)(=O)O)cc(S(=O)(=O)O)c45)ccc3C)c2)c1 [suramin, reference compound]

Ki ([2]; read-out: KI): 107 µM
Molecule: Cc1cc(S(=O)(=O)O)ccc1N=c1ccc2c(-c3ccccc3C(=O)O)c3ccc(Nc4ccccc4C)cc3oc-2c1 [violamine R]

Molecule: Cc1ccc(/N=N/c2c(O)c(S(=O)(=O)O)cc3cc(S(=O)(=O)O)ccc23)c(C)c1 [xylidene ponceau 2R]
Ki [2]: 49 µM

Ki [2, 4]: 201 µM
Molecule: cefsulodin [reference compound]

Ki [2, 4]: 50 µM
Molecule: eriochrome black T
